# Source: patent US8003331B2, “Method for identifying target protein of drug and method for screening therapeutic agent for diabetes using the target protein” (Astellas Pharma Inc., priority 2005, dated 2011)
# What was measured:
# TARDBP = biological target: T1, TARDBP (Homo sapiens, UniProt Q13148); test: pull-down with 8 GST fusion chaperone proteins from THP-1 cell extract, negative staining and mass spectrum identification; type: binding; conditions: 100 μM thalidomide added or not added
# T1 construct: endogenous in cells; host or cells: THP-1
# T1 sequence (Q13148 whole entry, the tested form may be a part): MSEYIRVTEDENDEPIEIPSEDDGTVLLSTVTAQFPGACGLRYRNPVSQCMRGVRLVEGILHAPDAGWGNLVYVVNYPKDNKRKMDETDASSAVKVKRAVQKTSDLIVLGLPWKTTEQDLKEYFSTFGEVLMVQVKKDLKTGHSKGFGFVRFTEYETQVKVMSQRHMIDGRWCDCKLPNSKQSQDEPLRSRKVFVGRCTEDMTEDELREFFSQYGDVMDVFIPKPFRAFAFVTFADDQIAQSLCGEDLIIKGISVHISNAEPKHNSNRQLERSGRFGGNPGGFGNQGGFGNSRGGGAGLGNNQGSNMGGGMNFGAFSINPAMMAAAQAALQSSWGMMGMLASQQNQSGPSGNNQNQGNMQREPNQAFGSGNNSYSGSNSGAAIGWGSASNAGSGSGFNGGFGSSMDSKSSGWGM
# Procedure: Thalidomide has significant drug effects for sleep inducing agents, multiple myeloma, HIV, Hansen's disease and the like, but direct target protein of thalidomide has so far been unclear. Accordingly, an attempt was made to screen a target protein of thalidomide using the method shown in the aforementioned “Example 2(2). A human monocytic cell line THP-1 (ATCC) was cultured and suspended in 60 ml of a minimum essential medium (RPMI 1640, Invitrogen) containing 10% fetal calf serum (FCS) and cultured on a plate of 10 cm in diameter (Asahi Techno Glass) until reached 10^6 cells/ml. The cells were collected by 3 minutes of centrifugation at 1200 rpm, washed once with 10 ml of ice-cooled PBS and then lysed by adding 2.0 ml of the aforementioned buffer A, and the cell extract was collected. […] Under a condition of adding or not adding 100 μM in final concentration of thalidomide ((−)-thalidomide, Sigma), a pull-down test was carried out by mixing this soluble fraction of cell extract with 8 species of GST fusion chaperone proteins purified on the glutathione Sepharose beads (a mixture of GST-HSPA1A, GST-HSPH1, GST-HSPCA, GST-HSPD1, GST-DNAJA1, GST-HSPB1, GST-HSPE1 and GST-HSPA4; respective proteins were mixed in 0.5 μg portions). In this connection, steps and conditions of the pull-down test were the same as the aforementioned Example 2(2). […]
# TNF-α = TNF-α gene expression in HeLa S3 cell (real time PCR, corrected by β-actin); type: cell-based, human
# Procedure: The pcDNA-TARDBP or an empty vector (pcDNA3.1) (Invitrogen) was transferred into HeLa S3 cell. Illustratively, the HeLa S3 cell (ATCC) was firstly cultured in a 12 well culture plate until it reached a state of 70% confluent, by adding 1 ml of a minimum essential medium DMEM (Gibco) containing 10% fetal bovine serum (Sigma) to each well of the culture plate. The medium was substituted by 0.5 ml per well of a serum-free medium OPTI MEM I (Invitrogen), and 0.8 μg/well of the pcDNA-TARDBP or pcDNA3.1 was transiently transferred using Lipofect amine 2000 (Invitrogen). After 12 hours of the culturing, this was substituted by 1 ml/well of DMEM containing 10% of fetal bovine serum and further cultured for 12 hours. This was further cultured for 16 hours under a condition of adding or not adding okadaic acid (Wako Pure Chemical Industries) to a final concentration of 50 nM. In this case, […] was added a part of the cells simultaneously with the okadaic acid treatment. The medium was discarded, the cells were washed twice with ice-cooled PBS, and then these cells were frozen and stored at −80° C.
# Total RNA was prepared from each cell frozen in the aforementioned Example 9(2), using a reagent for RNA extraction use (Isogen; Nippon Gene) and in accordance with the instructions attached thereto. The thus prepared each total RNA was then treated with a deoxyribonuclease (Nippon Gene), subjected to phenol/chloroform treatment and ethanol precipitation and dissolved in sterile water. Using 1 μg of this total RNA, its reverse transcription into a single-stranded cDNA was carried out in a system of 20 μl using a kit for reverse transcription reaction use (Advantage™ RT-for-PCR Kit; Clontech).
# Six oligonucleotides (SEQ ID NO:97 to SEQ ID NO:102) were designed and synthesized as primers of PCR for the measurement of gene expression quantity. A combination of SEQ ID NO:97 and SEQ ID NO:98 was used for human β-actin gene, and a combination of SEQ ID NO:99 and SEQ ID NO:100 for human TNF-α gene, and a combination of SEQ ID NO:101 and SEQ ID NO:102 for human TARDBP gene, respectively. […]
# The expression quantities of human TNF-α gene and human TARDBP gene in each sample were corrected by the expression quantity of β-actin gene based on the following equation. [Corrected expression quantity of TNF-α or TARDBP]=[expression quantity of TNF-α or TARDBP gene (raw data)/[expression quantity of β-actin gene (raw data)]
# In comparing the expression quantities of TNF-α and TARDBP genes, relative amounts were calculated by regarding the expression quantity in a cell, into which an empty vector (pcDNA3.1) was transferred and which was treated only with the solvent (DMSO), as 100, with the results sown in FIG. 9 and FIG. 10. […]
smiles,measurement,setting,value
"O=C1CCC(N2C(=O)c3ccccc3C2=O)C(=O)N1 (single isomer, unassigned; (-)) [thalidomide, (−)-thalidomide]",band of about 45 kDa (TARDBP) binding to GST fusion chaperone protein mixture,TARDBP,present only when thalidomide was added
same,action to suppress expression of TNF-α,"TNF-α; TARDBP high expression cell (pcDNA-TARDBP HeLa S3), with 50 nM okadaic acid",not observed
same,suppression of expression acceleration of TNF-α by okadaic acid,"TNF-α; control cell (empty vector HeLa S3), thalidomide '100' added with 50 nM okadaic acid, 16 hours",~50%
